Assay results reported in publication PMC5504357, “Antifungal Potential of Copper(II), Manganese(II) and Silver(I) 1,10-Phenanthroline Chelates Against Multidrug-Resistant Fungal Species Forming the Candida haemulonii Complex: Impact on the Planktonic and Biofilm Lifestyles” (Frontiers in Microbiology, 2017).
Where two headings read alike, the source gives them in different places.

Legend:
[1] = test system: Candida haemulonii var. vulnera; assay: Biofilm-growing cells, XTT assay, bMIC; assay type: cell-based; conditions: for GM-bMIC: geometric mean, C. haemulonii var. vulnera isolates; for bMIC: mature biofilm, 48 h, 50% inhibition of metabolic activity
Procedure: (§1) The effect of the compounds on biofilm-growing cells was determined using the previously described microtiter-based technique (Ramage et al., [2001]). The fungi (10^6 yeast cells) were incubated for 48 h at 37°C in 96-well polystyrene microtiter plates (Corning®, Corning Incorporated, USA) containing Sabouraud-dextrose broth to accommodate biofilm formation. Following biofilm formation, the culture medium was aspirated and non-adherent cells removed by thoroughly washing the wells three times with sterile PBS (0.15 M NaCl, 0.01 M phosphate buffer, pH 7.2). Afterwards, the compounds, at the same concentrations used in the planktonic assays, were added to the wells, and the plates were incubated for further 48 h at 37°C. The metabolic activity was then evaluated using a colorimetric assay that measures the metabolic reduction of 2,3-bis (2-methoxy-4-nitro-5-sulfophenyl)-5-[(phenylamino) carbonyl]-2H-tetrazolium hydroxide (XTT; Sigma-Aldrich) to a water-soluble, brown formazan product (Peeters et al., [2008]). The biofilm MIC (bMIC) for each compound was established as the minimal concentration capable of inhibiting 50% of metabolic activity when compared to compound-free wells (Ziccardi et al., [2015]).

Candida haemulonii [2] = assay: Biofilm-growing cells, XTT assay, bMIC; assay type: cell-based; conditions: for GM-bMIC: geometric mean, C. haemulonii isolates, values marked * do not include LIP Ch4 (>512); for bMIC: mature biofilm, 48 h, 50% inhibition of metabolic activity
Procedure: as §1

Candida duobushaemulonii [3] = assay: Biofilm-growing cells, XTT assay, bMIC; assay type: cell-based; conditions: for GM-bMIC: geometric mean, C. duobushaemulonii isolates; for bMIC: mature biofilm, 48 h, 50% inhibition of metabolic activity
Procedure: as §1

[4] = test system: Candida haemulonii var. vulnera; assay: Planktonic growth, broth microdilution (CLSI M27-A3), MIC; assay type: cell-based; conditions: for GM-MIC: geometric mean of three C. haemulonii var. vulnera isolates; for MIC: planktonic, 48 h, 37°C
Text: (§2) Three clinical isolates of each species that form the C. haemulonii complex were used in this study: C. haemulonii (LIPCh4 from finger nail, LIPCh7 from toe nail, and LIPCh12 from blood), C. duobushaemulonii (LIPCh1 from finger nail, LIPCh6 from toe nail, and LIPCh8 from blood) and C. haemulonii var. vulnera (LIPCh5 from toe nail, LIPCh9 from urine, and LIPCh11 from blood) (Ramos et al., [2015]). The fungal isolates were identified by the automatized system VITEK® 2 and then characterized by ITS1-5.8S-ITS2 gene sequencing (Ramos et al., [2015]). Fungal cells were cultured in Sabouraud-dextrose medium under constant agitation (130 rpm) for 48 h at 37°C. Human lung adenocarcinoma A549 cells were maintained in culture flasks containing DMEM medium supplemented with 10% fetal bovine serum at 37°C in an atmosphere of 5% CO2.
(§3) Susceptibility profile assays were performed in accordance with the broth microdilution protocol described in the document M27-A3 published by the Clinical and Laboratory Standards Institutes (CLSI, [2008]). Samples of the test chelates were dissolved in DMSO (500 μL) and then serially diluted in a 96-well plate containing RPMI 1640 (Sigma-Aldrich, USA) to give the concentration range of 0.0625-32 mg/L. Aqueous solutions of the metal-free phen ligand and the simple metal salts, MnCl2, CuCl2, and AgNO3, were also screened over the same concentration range. Caspofungin (Sigma-Aldrich) was used as a classical antifungal agent able to block the growth of all clinical isolates of C. haemulonii species as previously reported by our research group (Ramos et al., [2015]). Water dilutions containing DMSO concentrations corresponding to those used to prepare the drug solutions were assessed in parallel. Untreated and compound-treated fungal cells were incubated at 37°C for 48 h and the minimal inhibitory concentration (MIC) was established as the lowest compound concentration where no cellular growth could be detected by visual inspection in accordance to the CLSI recommendation. The geometric mean of the MIC values (GM-MIC) of each compound against all the fungal isolates was calculated using the software, Microsoft Office Excel 2013.

Candida haemulonii [5] = assay: as above; assay type: cell-based; conditions: for GM-MIC: geometric mean of three C. haemulonii isolates; for MIC: planktonic, 48 h, 37°C
Text: as §2, §3

Candida duobushaemulonii [6] = assay: as above; assay type: cell-based; conditions: for GM-MIC: geometric mean of three C. duobushaemulonii isolates; for MIC: planktonic, 48 h, 37°C
Text: as §2, §3

[7] = test system: Candida haemulonii complex; assay: Biofilm-growing cells, overall across isolates; assay type: cell-based; conditions: for decrease in activity on going from planktonic to biofilm cells: biofilm MIC versus planktonic MIC; for Overall GM-bMIC: geometric mean across strains, values marked * do not include LIP Ch4 (>512)
Procedure: as §1

A549 cells = assay: Mammalian cell toxicity (MTT assay) and selectivity index; assay type: cell-based, Human
Text: as §2
The cytotoxicity was evaluated using the MTT [3-(4,5-dimethylthiazol-2-yl)-2,5-diphenyl tetrazolium bromide] (Sigma-Aldrich) assay (Mosmann, [1983]). A549 cells (10^4) were seeded into tissue culture plates (TPP, Switzerland) and cultured for 24 h at 37°C in a 5% CO2 in order to obtain cellular confluence. The wells were then washed twice with DMEM to remove non-adherent cells and the test compounds were added (in concentrations ranging from 0.0313 to 512 μg/mL) to plates containing DMEM, followed by a 48 h incubation period under the same conditions mentioned above. The cellular viability was evaluated by adding MTT to each well and incubating the plates in the dark for 3 h, allowing the viable cells containing active mitochondrial dehydrogenase enzymes to metabolize MTT-tetrazolium salt into purple formazan. The formazan crystals were then dissolved in DMSO (100 μL) and the absorbance (450 nm) measured using a Thermomax Molecular Device microplate reader. The concentration capable of reducing cellular viability by 50% (CC50) was calculated, and the selectivity index (SI) determined using the following equation: A549 CC50/C. haemulonii complex GM-MIC.

C. haemulonii complex = assay: Planktonic growth, overall across all nine isolates; assay type: cell-based, Candida haemulonii complex; conditions: for Overall GM-MIC / MIC: geometric mean across all nine strains; for MIC: in μM, read-out: Overall GM-MIC
Text: as §2, §3

O=[N+]([O-])[O-].[Ag+] [AgNO3, reference compound]
GM-bMIC [1]: 40.32 mg/L
bMIC ([1]; isolate LIP Ch5): 128 mg/L
bMIC ([1]; isolate LIP Ch9): 64 mg/L
bMIC ([1]; isolate LIP Ch13): 8 mg/L
GM-bMIC (Candida haemulonii [2]): 16^* mg/L
bMIC (Candida haemulonii [2]; isolate LIP Ch4): >512 mg/L
bMIC (Candida haemulonii [2]; isolate LIP Ch7): 8 mg/L
bMIC (Candida haemulonii [2]; isolate LIP Ch14): 32 mg/L
GM-bMIC (Candida duobushaemulonii [3]): 32 mg/L
bMIC (Candida duobushaemulonii [3]; isolate LIP Ch1): 16 mg/L
bMIC (Candida duobushaemulonii [3]; isolate LIP Ch6): 16 mg/L
bMIC (Candida duobushaemulonii [3]; isolate LIP Ch8): 128 mg/L
GM-MIC [4]: 0.5 µg/mL
MIC ([4]; isolate LIP Ch5): 0.5 µg/mL
MIC ([4]; isolate LIP Ch9): 0.5 µg/mL
MIC ([4]; isolate LIP Ch11): 0.5 µg/mL
GM-MIC (Candida haemulonii [5]): 0.79 µg/mL
MIC (Candida haemulonii [5]; isolate LIP Ch4): 1 µg/mL
MIC (Candida haemulonii [5]; isolate LIP Ch7): 0.5 µg/mL
MIC (Candida haemulonii [5]; isolate LIP Ch12): 1 µg/mL
GM-MIC (Candida duobushaemulonii [6]): 0.63 µg/mL
MIC (Candida duobushaemulonii [6]; isolate LIP Ch1): 0.5 µg/mL
MIC (Candida duobushaemulonii [6]; isolate LIP Ch6): 0.5 µg/mL
MIC (Candida duobushaemulonii [6]; isolate LIP Ch8): 1 µg/mL
decrease in activity on going from planktonic to biofilm cells [7]: 43.8 fold
Overall GM-bMIC ([7]; in μM): 172 µM
Overall GM-bMIC [7]: 29.34 mg/L
A549 (CC50) (A549 cells; MTT, 48 h incubation): 16.98 µg/mL
Overall GM-MIC (C. haemulonii complex): 0.63 µg/mL
MIC (C. haemulonii complex): 3.93 µM
effect on planktonic fungal growth/viability (in words) (C. haemulonii complex; nine clinical isolates, 0.0625-32 mg/L): appreciably deterred fungal growth

O=C1C(=O)c2cccnc2-c2ncccc21.O=C1C(=O)c2cccnc2-c2ncccc21.[Ag+].[O-][Cl+3]([O-])([O-])[O-] [compound 15, [Ag(phendione)2]ClO4]
GM-bMIC [1]: 32 mg/L
bMIC ([1]; isolate LIP Ch5): 32 mg/L
bMIC ([1]; isolate LIP Ch9): 32 mg/L
bMIC ([1]; isolate LIP Ch13): 32 mg/L
GM-bMIC (Candida haemulonii [2]): 11.31^* mg/L
bMIC (Candida haemulonii [2]; isolate LIP Ch4): >512 mg/L
bMIC (Candida haemulonii [2]; isolate LIP Ch7): 8 mg/L
bMIC (Candida haemulonii [2]; isolate LIP Ch14): 16 mg/L
GM-bMIC (Candida duobushaemulonii [3]): 10.08 mg/L
bMIC (Candida duobushaemulonii [3]; isolate LIP Ch1): 8 mg/L
bMIC (Candida duobushaemulonii [3]; isolate LIP Ch6): 32 mg/L
bMIC (Candida duobushaemulonii [3]; isolate LIP Ch8): 4 mg/L
GM-MIC [4]: 1.26 µg/mL
MIC ([4]; isolate LIP Ch5): 2 µg/mL
MIC ([4]; isolate LIP Ch9): 1 µg/mL
MIC ([4]; isolate LIP Ch11): 1 µg/mL
GM-MIC (Candida haemulonii [5]): 1 µg/mL
MIC (Candida haemulonii [5]; isolate LIP Ch4): 1 µg/mL
MIC (Candida haemulonii [5]; isolate LIP Ch7): 1 µg/mL
MIC (Candida haemulonii [5]; isolate LIP Ch12): 1 µg/mL
GM-MIC (Candida duobushaemulonii [6]): 2 µg/mL
MIC (Candida duobushaemulonii [6]; isolate LIP Ch1): 2 µg/mL
MIC (Candida duobushaemulonii [6]; isolate LIP Ch6): 2 µg/mL
MIC (Candida duobushaemulonii [6]; isolate LIP Ch8): 2 µg/mL
decrease in activity on going from planktonic to biofilm cells [7]: 11.8 fold
Overall GM-bMIC ([7]; in μM): 25.48 µM
Overall GM-bMIC [7]: 16 mg/L
A549 (CC50) (A549 cells; MTT, 48 h incubation): 3.76 µg/mL
Overall GM-MIC (C. haemulonii complex): 1.36 µg/mL
MIC (C. haemulonii complex): 2.16 µM

O.O.O.O.O.O=C([O-])c1ccccc1C(=O)[O-].[Mn+2].c1cnc2c(c1)ccc1cccnc12.c1cnc2c(c1)ccc1cccnc12 [compound 9, [Mn(ph)(phen)2(H2O)].4H2O]
GM-bMIC [1]: 6.35 mg/L
bMIC ([1]; isolate LIP Ch5): 16 mg/L
bMIC ([1]; isolate LIP Ch9): 4 mg/L
bMIC ([1]; isolate LIP Ch13): 4 mg/L
GM-bMIC (Candida haemulonii [2]): 25.40 mg/L
bMIC (Candida haemulonii [2]; isolate LIP Ch4): 512 mg/L
bMIC (Candida haemulonii [2]; isolate LIP Ch7): 2 mg/L
bMIC (Candida haemulonii [2]; isolate LIP Ch14): 16 mg/L
GM-bMIC (Candida duobushaemulonii [3]): 5.04 mg/L
bMIC (Candida duobushaemulonii [3]; isolate LIP Ch1): 16 mg/L
bMIC (Candida duobushaemulonii [3]; isolate LIP Ch6): 4 mg/L
bMIC (Candida duobushaemulonii [3]; isolate LIP Ch8): 2 mg/L
GM-MIC [4]: 2 µg/mL
MIC ([4]; isolate LIP Ch5): 2 µg/mL
MIC ([4]; isolate LIP Ch9): 2 µg/mL
MIC ([4]; isolate LIP Ch11): 2 µg/mL
GM-MIC (Candida haemulonii [5]): 2 µg/mL
MIC (Candida haemulonii [5]; isolate LIP Ch4): 2 µg/mL
MIC (Candida haemulonii [5]; isolate LIP Ch7): 2 µg/mL
MIC (Candida haemulonii [5]; isolate LIP Ch12): 2 µg/mL
GM-MIC (Candida duobushaemulonii [6]): 2 µg/mL
MIC (Candida duobushaemulonii [6]; isolate LIP Ch1): 2 µg/mL
MIC (Candida duobushaemulonii [6]; isolate LIP Ch6): 2 µg/mL
MIC (Candida duobushaemulonii [6]; isolate LIP Ch8): 2 µg/mL
Overall GM-bMIC ([7]; in μM): 13.93 µM
Overall GM-bMIC [7]: 9.33 mg/L
A549 (CC50) (A549 cells): 259.34 µg/mL
Overall GM-MIC (C. haemulonii complex): 2 µg/mL
MIC (C. haemulonii complex): 2.98 µM
